The values that follow are results of earlier work, collected in patent US12133903B2, “Oral care article comprising a delivery carrier and solid hydrophilic particles comprising a bleaching agent” (The Procter & Gamble Company, priority 2020, dated 2024).

SMILES strings stand for the structures.

The conditions of the data set: in water; supplier data sheet / Safety Data Sheet / Wikipedia.

For `NC(N)=O.OO` [Urea Hydrogen Peroxide Adduct], the Solubility is recorded as 80 parts per 100 parts of water.
